According to patent US6498179B1, “Oxazole derivatives, their production and use” (Takeda Chemical Industries, Ltd., priority 1996, dated 2002):
Like-named read-outs stand apart in the source and are kept apart here.

What was measured:
KKA^y mice = experiment: Test for blood sugar depression in mice; assay type: in vivo; conditions: Mus musculus, fasted male KKA^y mice, oral 30 mg/kg, compared with control group
Method: After being fasted for 20 hours, 9- to 12-week-old, male KKA^y mice (five mice in each group) were orally given the test compound at a dose of 30 mg/kg/10 ml through a stomach tube. Control mice were orally given 5% gum arabic solution. Blood samples (70 μl) were obtained from orbital venous plexus through capillary tube before and 60 and 120 minutes after the administration of the test compound. Blood glucose was determined according to a glucose oxidase method using a commercial kit (Iatrochem, GIU(A), Iatron Labs. Inc.). Blood glucose level at 60 or 120 minutes of the test groups was compared with that of control group, and was shown as blood glucose depression (%) (Table 1).

MIN6 cells = experiment: Insulinotropic effect on MIN6 cells; assay type: cell-based, mouse; conditions: compound 10 μM, 12.5 mM glucose, 2 hours, percentage of control
Method: MIN6 cells established from mouse beta cell tumor were cultured in DMEM supplemented with 15% fetal bovine serum on 12-well plate at 37° C. in 5% CO2, and were used at the stage of subconfluency. Cells were washed twice with PBS and incubated in Krebs-Ringer HEPES(KRH) containing with 0.1 mM glucose for 30 minutes. Then they were incubated in KRH containing with 12.5 mM glucose and 0.1% DMSO (control) or compound (10 μM) for 2 hours. Medium was collected and insulin concentration was measured using a commercial radioimmunoassay kit (Amarsham Inc.). The plate was washed once with PBS and cellular protein content was determined by the method of Lowrey et al. (J. Biol. Chem. 193, 265-275, 1951). Insulinotropic activity of the compound was indicated as percentage of control (Table 2).

[1] = 1 h, 60 minutes after administration, read-out: Degree of Blood Glucose Depression (%) After 60 minutes
[2] = 2 h, 120 minutes after administration, read-out: Degree of Blood Glucose Depression (%) After 120 minutes

What does the source list for `O=C(O)CCc1oc(Sc2ccccn2)nc1-c1ccc(Cl)cc1` [Example 15, 4-(4-chlorophenyl)-2-(2-pyridylthio)-5-oxazolepropionic acid]?
inhibition in vivo at 30 mg/kg (KKA^y mice; [1]): 22%; inhibition in vivo at 30 mg/kg (KKA^y mice; [2]): 26%

What does the source list for `Cc1nccn1-c1nc(-c2ccc(Cl)cc2)c(CCC(=O)O)o1` [Example 25, 4-(4-chlorophenyl)-2-(2-methyl-1-imidazolyl)-5-oxazolepropionic acid]?
inhibition in vivo at 30 mg/kg (KKA^y mice; [1]): 38%; inhibition in vivo at 30 mg/kg (KKA^y mice; [2]): 27%

For `CCc1nccn1-c1nc(-c2ccc(Cl)cc2)c(CCC(=O)O)o1` [Example 26, 4-(4-chlorophenyl)-2-(2-ethyl-1-imidazolyl)-5-oxazolepropionic acid], which inhibition in vivo at 30 mg/kg (KKA^y mice; [1]) is on record?
Its inhibition in vivo at 30 mg/kg is 32%.

And the inhibition in vivo at 30 mg/kg (KKA^y mice; [2])?
Its inhibition in vivo at 30 mg/kg is 27%.

What does the source list for `O=C(O)CCc1oc(-n2cccn2)nc1-c1ccc(Cl)cc1` [Example 28, 4-(4-chlorophenyl)-2-(1-pyrazolyl)-5-oxazolepropionic acid]?
inhibition in vivo at 30 mg/kg (KKA^y mice; [1]): 24%; inhibition in vivo at 30 mg/kg (KKA^y mice; [2]): 33%

For `CC(C)c1nccn1-c1nc(-c2ccc(Cl)cc2)c(CCC(=O)O)o1` [Example 31, 4-(4-chlorophenyl)-2-(2-isopropyl-1-imidazolyl)-5-oxazolepropionic acid], which inhibition in vivo at 30 mg/kg (KKA^y mice; [1]) is on record?
The inhibition in vivo at 30 mg/kg was 27%.

What about the inhibition in vivo at 30 mg/kg (KKA^y mice; [2]) of the same compound?
Its inhibition in vivo at 30 mg/kg is 28%.

For `CSc1nccn1-c1nc(-c2ccc(Cl)cc2)c(CCC(=O)O)o1` [Example 32, 4-(4-chlorophenyl)-2-(2-methylthio-1-imidazolyl)-5-oxazolep ropionic acid], which inhibition in vivo at 30 mg/kg (KKA^y mice; [1]) is on record?
The inhibition in vivo at 30 mg/kg was 25%.

And the inhibition in vivo at 30 mg/kg (KKA^y mice; [2])?
Its inhibition in vivo at 30 mg/kg is 28%.

With `O=C(O)CCc1oc(-n2cnc3ccccc32)nc1-c1ccc(Cl)cc1` [Example 34, 4-(4-chlorophenyl)-2-(1-benzimidazolyl)-5-oxazolepropionic acid] as the compound, how does the inhibition in vivo at 30 mg/kg (KKA^y mice; [1]) read?
The inhibition in vivo at 30 mg/kg was 27%.

And the inhibition in vivo at 30 mg/kg (KKA^y mice; [2])?
The inhibition in vivo at 30 mg/kg was 25%.

Which “Insulin secretion-promoting effect (%)” value (MIN6 cells) does the source give for `Cc1nccn1-c1nc(-c2ccc(Cl)cc2)c(CCCO)o1` [Example 36, 4-(4-chlorophenyl)-2-(2-methyl-1-imidazolyl)-5-oxazolepropanol] here?
The value was 272%.

And the inhibition in vivo at 30 mg/kg (KKA^y mice; [1])?
The inhibition in vivo at 30 mg/kg was 23%.

And the inhibition in vivo at 30 mg/kg (KKA^y mice; [2])?
The inhibition in vivo at 30 mg/kg was 18%.

Which results are given for `Cc1nccn1-c1nc(-c2ccc(Cl)cc2)c(CCCCO)o1` [Example 65, 4-(4-chlorophenyl)-2-(2-methyl-1-imidazolyl)-5-oxazolebutanol]?
melting point: 110 to 111 °C; Insulin secretion-promoting effect (%) (MIN6 cells): 397%

Which melting point does the source give for `Cc1nccn1-c1nc(-c2ccc(Cl)cc2)c(CCCn2ccnc2)o1` [Example 72, 4-(4-chlorophenyl)-5-[3-(1-imidazolyl)propyl]-2-(2-methyl-1-imidazolyl)oxazole] here?
The melting point was 133 to 134 °C.

And the “Insulin secretion-promoting effect (%)” value (MIN6 cells)?
The value was 303%.

With `Cc1nc(-c2nc(-c3ccc(Cl)cc3)c(CCCCCO)o2)c[nH]1` [Example 83, 4-(4-chlorophenyl)-2-(2-methyl-imidazolyl)-5-oxazolepentanol] as the compound, how does the melting point read?
Its melting point is 94 to 95 °C.

And the “Insulin secretion-promoting effect (%)” value (MIN6 cells)?
Its value is 359%.

With `Cc1nccn1-c1nc(-c2ccc(Cl)cc2)c(CCCCn2ccnc2)o1` [Example 89, 4-(4-chlorophenyl)-5-[4-(1-imidazolyl)butyl]-2-(2-methyl-1-imidazolyl)oxazole] as the compound, how does the melting point read?
The melting point was 84 to 85 °C.

And the “Insulin secretion-promoting effect (%)” value (MIN6 cells)?
The value was 385%.

With `CCOC(=O)c1nccn1CCCCc1oc(-n2ccnc2C)nc1-c1ccc(Cl)cc1` [Example 92, ethyl 1-[4-[4-(4-chlorophenyl)-2-(2-methyl-1-imidazolyl)-5-oxazolyl]butyl]-2-imidazolecarboxylate] as the compound, how does the melting point read?
Its melting point is 134 to 135 °C.
